Assay results published in PubChem BioAssay (NCI).
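Results reflect a 48-hour exposure of cells in 96-well plates to compound at five concentrations. The concentration for full growth arrest is given as TGI.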

How the values were obtained:
Experiment in all cases: DTP human tumour cell line panel, 48 h
SF-539 CNS = tested on: SF-539 CNS
IGROV1 ovarian = tested on: IGROV1 ovarian
786-0 renal = tested on: 786-0 renal
SK-MEL-2 melanoma = tested on: SK-MEL-2 melanoma
NCI-H522 lung = tested on: NCI-H522 lung
UACC-62 melanoma = tested on: UACC-62 melanoma
OVCAR-3 ovarian = tested on: OVCAR-3 ovarian
HCT-116 colon = tested on: HCT-116 colon
LOX IMVI melanoma = tested on: LOX IMVI melanoma
RXF 393 renal = tested on: RXF 393 renal
TK-10 renal = tested on: TK-10 renal
EKVX NSCLC = tested on: EKVX NSCLC
MOLT-4 leukemia = tested on: MOLT-4 leukemia
UO-31 renal = tested on: UO-31 renal
SK-OV-3 ovarian = tested on: SK-OV-3 ovarian
NCI-H460 lung = tested on: NCI-H460 lung
SK-MEL-28 melanoma = tested on: SK-MEL-28 melanoma
SF-268 CNS = tested on: SF-268 CNS
SF-295 CNS = tested on: SF-295 CNS
NCI/ADR-RES ovarian = tested on: NCI/ADR-RES ovarian
HL-60(TB) leukemia = tested on: HL-60(TB) leukemia
COLO 205 colon = tested on: COLO 205 colon
NCI-H226 lung = tested on: NCI-H226 lung
OVCAR-5 ovarian = tested on: OVCAR-5 ovarian
HCT-15 colon = tested on: HCT-15 colon
MDA-MB-435 = tested on: MDA-MB-435
MDA-MB-231 breast = tested on: MDA-MB-231 breast
CAKI-1 renal = tested on: CAKI-1 renal
OVCAR-8 ovarian = tested on: OVCAR-8 ovarian
PC-3 prostate = tested on: PC-3 prostate
SNB-75 CNS = tested on: SNB-75 CNS
U251 CNS = tested on: U251 CNS
SNB-19 CNS = tested on: SNB-19 CNS
HOP-92 NSCLC = tested on: HOP-92 NSCLC
HT29 colon = tested on: HT29 colon
MALME-3M melanoma = tested on: MALME-3M melanoma
SR leukemia = tested on: SR leukemia
HOP-62 NSCLC = tested on: HOP-62 NSCLC
T-47D breast = tested on: T-47D breast
CCRF-CEM leukemia = tested on: CCRF-CEM leukemia
ACHN renal = tested on: ACHN renal
UACC-257 melanoma = tested on: UACC-257 melanoma
OVCAR-4 ovarian = tested on: OVCAR-4 ovarian
M14 melanoma = tested on: M14 melanoma
SW-620 colon = tested on: SW-620 colon
KM12 colon = tested on: KM12 colon
HS 578T breast = tested on: HS 578T breast
SK-MEL-5 melanoma = tested on: SK-MEL-5 melanoma
K-562 leukemia = tested on: K-562 leukemia
DU-145 prostate = tested on: DU-145 prostate
BT-549 breast = tested on: BT-549 breast
SN12C renal = tested on: SN12C renal
A549 NSCLC = tested on: A549 NSCLC
MCF7 breast = tested on: MCF7 breast
NCI-H23 lung = tested on: NCI-H23 lung

## O=C(CSCC(=O)N/N=C\c1cc(Cl)cc(Cl)c1O)N/N=C\c1cc(Cl)cc(Cl)c1O
SF-539 CNS
  TGI: 11.1 µM
IGROV1 ovarian
  TGI: 15.3 µM
786-0 renal
  TGI: 20 µM
SK-MEL-2 melanoma
  TGI: 12.9 µM
NCI-H522 lung
  TGI: 6.59 µM
UACC-62 melanoma
  TGI: 13.7 µM
OVCAR-3 ovarian
  TGI: 6.83 µM
HCT-116 colon
  TGI: 12.8 µM
LOX IMVI melanoma
  TGI: 10.8 µM
RXF 393 renal
  TGI: > 100 µM
TK-10 renal
  TGI: 21 µM
EKVX NSCLC
  TGI: 28.3 µM
MOLT-4 leukemia
  TGI: 8.81 µM
UO-31 renal
  TGI: 17.5 µM
SK-OV-3 ovarian
  TGI: 24 µM
NCI-H460 lung
  TGI: 42.8 µM
SK-MEL-28 melanoma
  TGI: 18.9 µM
SF-268 CNS
  TGI: 15.7 µM
SF-295 CNS
  TGI: 21 µM
NCI/ADR-RES ovarian
  TGI: 12.5 µM
HL-60(TB) leukemia
  TGI: 13.9 µM
COLO 205 colon
  TGI: 20.4 µM
NCI-H226 lung
  TGI: 15 µM
OVCAR-5 ovarian
  TGI: 22.9 µM
HCT-15 colon
  TGI: 12.9 µM
MDA-MB-435
  TGI: 21.1 µM
MDA-MB-231 breast
  TGI: 13.5 µM
CAKI-1 renal
  TGI: 15 µM
OVCAR-8 ovarian
  TGI: 14.3 µM
PC-3 prostate
  TGI: 18.5 µM
SNB-75 CNS
  TGI: 36 µM
U251 CNS
  TGI: 6.61 µM
SNB-19 CNS
  TGI: > 100 µM
HOP-92 NSCLC
  TGI: 31.4 µM
HT29 colon
  TGI: 22.3 µM
MALME-3M melanoma
  TGI: 8.02 µM
SR leukemia
  TGI: 11 µM
HOP-62 NSCLC
  TGI: 18.3 µM
T-47D breast
  TGI: 27.9 µM
CCRF-CEM leukemia
  TGI: 0.748 µM
ACHN renal
  TGI: 11.7 µM
UACC-257 melanoma
  TGI: 18.2 µM
OVCAR-4 ovarian
  TGI: 19.1 µM
M14 melanoma
  TGI: 17.5 µM
SW-620 colon
  TGI: 16.2 µM
KM12 colon
  TGI: 19.7 µM
HS 578T breast
  TGI: 20.1 µM
SK-MEL-5 melanoma
  TGI: 16.3 µM
K-562 leukemia
  TGI: 12.7 µM
DU-145 prostate
  TGI: 21.1 µM
BT-549 breast
  TGI: 25.8 µM
SN12C renal
  TGI: 16.2 µM
A549 NSCLC
  TGI: 32.8 µM
MCF7 breast
  TGI: 34.5 µM
NCI-H23 lung
  TGI: 22.9 µM
